Data as given in paper PMC6171417, “Carbonic anhydrase inhibition with a series of novel benzenesulfonamide-triazole conjugates” (Journal of Enzyme Inhibition and Medicinal Chemistry, 2018).

Experiments:
Experiment in all cases: cells
Parameters in all cases: species or system NCI human tumour cell line panel; NCI one-dose anti-proliferative screen, human tumour cell line panel, growth inhibition percent (GI%)
[1] = system: DU-145; conditions: Homo sapiens, DU-145; growth inhibition (GI%), single dose
[2] = system: 786-0; conditions: Homo sapiens, 786-0; growth inhibition (GI%), single dose
[3] = system: RXF 393; conditions: Homo sapiens, RXF 393; growth inhibition (GI%), single dose
[4] = system: OVCAR-5; conditions: Homo sapiens, OVCAR-5; growth inhibition (GI%), single dose
[5] = system: NCI-H460; conditions: Homo sapiens, NCI-H460; growth inhibition (GI%), single dose
[6] = system: SK-MEL-28; conditions: Homo sapiens, SK-MEL-28; growth inhibition (GI%), single dose

`N#Cc1nnn(-c2ccc(S(N)(=O)=O)cc2)c1/N=C/c1ccc(Cl)cc1` [compound 9, 9] was tested, and the inhibition at 10 µM [1] was 1% and the inhibition at 10 µM [2] was 6.1%.

For `N#Cc1c(-c2ccc(Cl)cc2)nc2c(nnn2-c2ccc(S(N)(=O)=O)cc2)c1N` [compound 16, 4-(7-amino-5-(4-chlorophenyl)-6-cyano-3H-[1,2,3]triazolo[4,5-b]pyridin-3-yl)benzenesulfonamide], the inhibition at 10 µM [3] was 17.8%.

In the case of `CN(C)c1ccc(-c2nc3c(nnn3-c3ccc(S(N)(=O)=O)cc3)c(N)c2C#N)cc1` [compound 17, 4-(7-amino-6-cyano-5-(4-(dimethylamino)phenyl)-3H-[1,2,3]triazolo[4,5-b]pyridin-3-yl)benzenesulfonamide], the inhibition at 10 µM [4] is reported as 3.4% and the inhibition at 10 µM [5] is reported as 0.9%.

In the case of `CCn1c(=S)[nH]c2c(nnn2-c2ccc(S(N)(=O)=O)cc2)c1=N` [compound 20, 4-(6-ethyl-7-imino-5-thioxo-4,5,6,7-tetrahydro-3H-[1,2,3]triazolo[4,5-d]pyrimidin-3-yl)benzenesulfonamide], the inhibition at 10 µM [6] is reported as 0%.
